{
  "source": "patent EP2241565A1",
  "about": "“Aurora kinase inhibitors compounds” (Universität Leipzig, priority 2009, dated 2010)",
  "test_system": "HeLa cells",
  "test": "Fixed cell analysis of mitotic phenotypes (fluorescence / immunofluorescence)",
  "assay_type": "cell-based, human",
  "conditions": "40 µM, 24 h",
  "description": "For fixed cell analysis, HeLa or H2B-GFP/mRFP-αTubulin HeLa cells were grown on glass coverslips and treated as described above. Cells were fixed in ice cold methanol and mounted in Mowiol. Alternatively, non fluorescent HeLa were treated and subjected to immunofluorescence with anti-tubulin antibodies (Sigma, DM1A) and Hoechst to stain the DNA. Cells were observed on a Leica DM16000B microscope with the HCX PL APO CS 63x 1.4 objective. Images were taken with a Leica DFC 350FX camera, controlled by Leica Application Suit (LAS-AF 6000) software and processed with Adobe Photoshop.\nTo get a better idea about the defects causing cell division failure in cells treated with (C), we examined fixed cells to better visualize the chromosomes and the microtubules. […] In parallel, standard HeLa cells were treated in the same way. The cells were fixed and processed for immunofluorescence with anti-tubulin antibodies to visualize the microtubules and Hoechst to stain the DNA.",
  "note": "“Also recorded” adds a separate entry of the source.",
  "data": [
    {"smiles": "CC(C)Nc1nc(-c2ccco2)nc2ccc(C#CCO)cc12", "note": "[Compound (C), 3-(2-(Furan-2-yl)-4-(isoiproipylamino)quinazolin-6-yl)prop-2-yn-l-ol]", "values": [
      {"measurement": "mitotic phenotype of fixed cells", "value": "increased formation of multipolar spindles and other abnormal mitotic structures; also recorded: large proportion of abnormal mitotic spindles"}
    ]}
  ]
}
